From US7138361B2, “Herbicidal heterocycles” (E. I. du Pont de Nemours and Company, priority 2000, dated 2006)

Experiments:
Type in all cases: in vivo
[1] = system: barnyardgrass (Echinochloa crus-galli); assay: Test B flooded paddy test; settings: Rate 1000 g/ha, scale of 0 to 100 where 0 is no effect and 100 is complete control, visually evaluated after 13 to 15 days
Method in brief: (§1)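 Plants were grown to the 2-leaf stage in flooded paddy conditions before treatment with the formulated test chemicals. After 13 to 15 days in a greenhouse, each species was visually compared with untreated controls and rated from 0 (no effect) to 100 (complete control).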

[2] = system: duck salad (Heteranthera limosa); assay: Test B flooded paddy test; settings: Rate 1000 g/ha, scale of 0 to 100 where 0 is no effect and 100 is complete control, visually evaluated after 13 to 15 days
Method in brief: as §1

rice (Oryza saliva) = assay: Test B flooded paddy test; settings: Rate 1000 g/ha, scale of 0 to 100 where 0 is no effect and 100 is complete control, visually evaluated after 13 to 15 days
Method in brief: as §1

[3] = system: smallflower flatsedge (Cyperus difformis); assay: Test B flooded paddy test; settings: Rate 1000 g/ha, scale of 0 to 100 where 0 is no effect and 100 is complete control, visually evaluated after 13 to 15 days
Method in brief: as §1

[4] = system: crabgrass (Digitaria sanguinalis); assay: Test C preemergence; settings: for Plant response rating (0 to 100), Crabgrass: visual evaluation after 12 to 14 days
Method in brief: (§2)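 Plants held in greenhouse for 12–14 days post-application are scored by eye against controls on a 0–100 control scale. Application timing: preemergence on sown seed, or postemergence on 2–18 cm plants.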

[5] = system: goosegrass (Eleusine indica); assay: Test C preemergence; settings: for Plant response rating (0 to 100), Goosegrass: visual evaluation after 12 to 14 days
Method in brief: as §2

[6] = system: morningglory (Ipomoea hederacea); assay: Test C preemergence; settings: for Plant response rating (0 to 100), Morningglory: visual evaluation after 12 to 14 days
Method in brief: as §2

[7] = system: yellow nutsedge (Cyperus esculentus); assay: Test C preemergence; settings: for Plant response rating (0 to 100), Nutsedge: visual evaluation after 12 to 14 days
Method in brief: as §2

Sunflower = assay: Test C preemergence; settings: Rate 62 g/ha, scale 0 to 100
[8] = system: Surinam grass (Brachiaria decumbens); assay: Test C postemergence
Method in brief: as §2

[9] = system: bermudagrass (Cynodon dactylon); assay: Test C postemergence
Method in brief: as §2

corn (Zea mays) = assay: Test C postemergence
Method in brief: as §2

[10] = system: giant foxtail (Setaria faberii); assay: Test C postemergence
Method in brief: as §2

[11] = system: lambsquarters (Chenopodium album); assay: Test C postemergence
Method in brief: as §2

[12] = system: morningglory (Ipomoea hederacea); assay: Test C postemergence
Method in brief: as §2

[13] = system: pigweed (Amaranthus retroflexus); assay: Test C postemergence
Method in brief: as §2

[14] = Rate 125 g/ha, scale 0 to 100, 0 no effect, 100 complete control
[15] = preemergence, Rate 62 g/ha, scale 0 to 100
[16] = preemergence, Rate 250 g/ha, scale 0 to 100, 0 no effect, 100 complete control
[17] = Rate 62 g/ha, scale 0 to 100, 0 no effect, 100 complete control
[18] = Rate 250 g/ha, scale 0 to 100 (0 no effect, 100 complete control)
[19] = Rate 500 g/ha, scale 0 to 100 (0 no effect, 100 complete control)
[20] = Preemergence, Rate 500 g/ha, scale 0 to 100
[21] = preemergence, Rate 125 g/ha, scale 0 to 100, 0 no effect, 100 complete control

CC(C)(C)c1ccn(C2CCN(c3cccc(SC(F)(F)F)c3)C2=O)n1 (stereo not drawn) [Compound 93]
50: Plant response rating, Rice (rice (Oryza saliva))
0: Plant response rating, Morningglory [6, 14] | Plant response rating, Morningglory [6, 15] | Plant response rating, Morningglory [6, 16] | Plant response rating, Nutsedge [7, 14] | Plant response rating, Nutsedge [7, 15] | Plant response rating (0 to 100), Nutsedge ([7]; preemergence, Rate 500 g/ha) | Plant response rating, Nutsedge [7, 16] | Plant response rating, Sunflower (Sunflower)
20: Plant response rating, Goosegrass [5, 15] | Plant response rating (0 to 100), Morningglory ([6]; preemergence, Rate 500 g/ha)
80: Plant response rating, Crabgrass [4, 15]
100: Plant response rating, Barnyardgrass [1] | Plant response rating, Ducksalad [2] | Plant response rating, Flatsedge [3] | Plant response rating, Crabgrass [4, 14] | Plant response rating (0 to 100), Crabgrass ([4]; preemergence, Rate 500 g/ha) | Plant response rating, Crabgrass [4, 16] | Plant response rating, Goosegrass [5, 14] | Plant response rating (0 to 100), Goosegrass ([5]; preemergence, Rate 500 g/ha) | Plant response rating, Goosegrass [5, 16]

CC(C)(C)c1ccn(C2SCN(c3cccc(OC(F)(F)F)c3)C2=O)n1 (stereo not drawn) [Compound 30]
80: Plant response rating, Bermudagrass [9, 14] | Plant response rating, Bermudagrass [9, 18] | Plant response rating, Foxtail, Giant [10, 19] | Plant response rating, Pigweed [13, 14] | Plant response rating, Morningglory [6, 20] | Plant response rating (0 to 100), Morningglory ([6]; preemergence, Rate 250 g/ha)
20: Plant response rating, Corn (corn (Zea mays); [14]) | Plant response rating, Nutsedge [7, 17]
60: Plant response rating, Surinam grass [8, 19]
100: Plant response rating, Barnyardgrass [1] | Plant response rating, Ducksalad [2] | Plant response rating, Flatsedge [3] | Plant response rating, Pigweed [13, 19] | Plant response rating, Crabgrass [4, 20] | Plant response rating, Crabgrass [4, 17] | Plant response rating (0 to 100), Crabgrass ([4]; preemergence, Rate 250 g/ha) | Plant response rating, Crabgrass [4, 21] | Plant response rating, Goosegrass [5, 20] | Plant response rating, Goosegrass [5, 17] | Plant response rating (0 to 100), Goosegrass ([5]; preemergence, Rate 250 g/ha) | Plant response rating, Goosegrass [5, 21]
0: Plant response rating, Surinam grass [8, 17] | Plant response rating, Surinam grass [8, 14] | Plant response rating, Surinam grass [8, 18] | Plant response rating, Foxtail, Giant [10, 14] | Plant response rating, Morningglory [12, 14]
90: Plant response rating, Rice (rice (Oryza saliva)) | Plant response rating, Bermudagrass [9, 19] | Plant response rating, Lambsquarters [11, 14] | Plant response rating, Lambsquarters [11, 18] | Plant response rating, Lambsquarters [11, 19] | Plant response rating, Pigweed [13, 18]
30: Plant response rating, Corn (corn (Zea mays); [18]) | Plant response rating, Foxtail, Giant [10, 18] | Plant response rating, Morningglory [6, 17] | Plant response rating, Morningglory [6, 21]
70: Plant response rating, Bermudagrass [9, 17]
40: Plant response rating, Corn (corn (Zea mays); [19]) | Plant response rating, Morningglory [12, 18] | Plant response rating, Morningglory [12, 19] | Plant response rating, Nutsedge [7, 20] | Plant response rating (0 to 100), Nutsedge ([7]; preemergence, Rate 250 g/ha)

O=C1C(n2ccc(C3CCCCC3)n2)OCN1c1cccc(C(F)(F)F)c1 (stereo not drawn) [Compound 51]
90: Plant response rating, Goosegrass [5, 21]
80: Plant response rating, Goosegrass [5, 17]
20: Plant response rating, Morningglory [6, 20] | Plant response rating, Nutsedge [7, 17] | Plant response rating, Nutsedge [7, 21]
100: Plant response rating, Barnyardgrass [1] | Plant response rating, Ducksalad [2] | Plant response rating, Flatsedge [3] | Plant response rating, Crabgrass [4, 20] | Plant response rating (0 to 100), Crabgrass ([4]; preemergence, Rate 250 g/ha) | Plant response rating, Crabgrass [4, 21] | Plant response rating, Goosegrass [5, 20] | Plant response rating (0 to 100), Goosegrass ([5]; preemergence, Rate 250 g/ha)
70: Plant response rating, Crabgrass [4, 17]
30: Plant response rating, Rice (rice (Oryza saliva)) | Plant response rating, Nutsedge [7, 20] | Plant response rating (0 to 100), Nutsedge ([7]; preemergence, Rate 250 g/ha)
0: Plant response rating, Morningglory [6, 21]
